Results: BigSolDB 2.1

**Q.** What does the source list for `O=[N+]([O-])c1cc[nH]n1`?
**A.** solubility (mole fraction) (in 1,2-dichlorobenzene, 283.15 K): 0.0009; solubility (mole fraction) (in 1,2-dichlorobenzene, 288.15 K): 0.00242; solubility (mole fraction) (in 1,2-dichlorobenzene, 293.15 K): 0.00425; solubility (mole fraction) (in 1,2-dichlorobenzene, 298.15 K): 0.00666; solubility (mole fraction) (in 1,2-dichlorobenzene, 303.15 K): 0.00908; solubility (mole fraction) (in 1,2-dichlorobenzene, 308.15 K): 0.0113; solubility (mole fraction) (in 1,2-dichlorobenzene, 313.15 K): 0.0139; solubility (mole fraction) (in 1,2-dichlorobenzene, 318.15 K): 0.0166; solubility (mole fraction) (in 1,2-dichlorobenzene, 323.15 K): 0.0197; solubility (mole fraction) (in 2-ethylhexyl acetate, 283.15 K): 0.00998; solubility (mole fraction) (in 2-ethylhexyl acetate, 288.15 K): 0.0107; solubility (mole fraction) (in 2-ethylhexyl acetate, 293.15 K): 0.0115; solubility (mole fraction) (in 2-ethylhexyl acetate, 298.15 K): 0.0122; solubility (mole fraction) (in 2-ethylhexyl acetate, 303.15 K): 0.0134; solubility (mole fraction) (in 2-ethylhexyl acetate, 308.15 K): 0.0146; solubility (mole fraction) (in 2-ethylhexyl acetate, 313.15 K): 0.0166; solubility (mole fraction) (in anisole, 283.15 K): 0.00502; solubility (mole fraction) (in anisole, 288.15 K): 0.00551; solubility (mole fraction) (in anisole, 293.15 K): 0.00623; solubility (mole fraction) (in anisole, 298.15 K): 0.00688; solubility (mole fraction) (in anisole, 303.15 K): 0.0078; solubility (mole fraction) (in anisole, 308.15 K): 0.0092; solubility (mole fraction) (in anisole, 313.15 K): 0.0112; solubility (mole fraction) (in anisole, 318.15 K): 0.0132; solubility (mole fraction) (in anisole, 323.15 K): 0.0156; solubility (mole fraction) (in benzonitrile, 283.15 K): 0.0197; solubility (mole fraction) (in benzonitrile, 288.15 K): 0.0223; solubility (mole fraction) (in benzonitrile, 293.15 K): 0.0253; solubility (mole fraction) (in benzonitrile, 298.15 K): 0.0291; solubility (mole fraction) (in benzonitrile, 303.15 K): 0.0342; solubility (mole fraction) (in benzonitrile, 308.15 K): 0.0396; solubility (mole fraction) (in benzonitrile, 313.15 K): 0.0486; solubility (mole fraction) (in benzonitrile, 318.15 K): 0.0631; solubility (mole fraction) (in benzonitrile, 323.15 K): 0.0828; solubility (mole fraction) (in benzyl alcohol, 283.15 K): 0.0263; solubility (mole fraction) (in benzyl alcohol, 288.15 K): 0.0296; solubility (mole fraction) (in benzyl alcohol, 293.15 K): 0.0333; solubility (mole fraction) (in benzyl alcohol, 298.15 K): 0.0391; solubility (mole fraction) (in benzyl alcohol, 303.15 K): 0.0452; solubility (mole fraction) (in benzyl alcohol, 308.15 K): 0.0508; solubility (mole fraction) (in benzyl alcohol, 313.15 K): 0.0581; solubility (mole fraction) (in benzyl alcohol, 318.15 K): 0.0672; solubility (mole fraction) (in benzyl alcohol, 323.15 K): 0.0753; solubility (mole fraction) (in mesitylene, 283.15 K): 0.00129; solubility (mole fraction) (in mesitylene, 288.15 K): 0.00162; solubility (mole fraction) (in mesitylene, 293.15 K): 0.002; solubility (mole fraction) (in mesitylene, 298.15 K): 0.00246; solubility (mole fraction) (in mesitylene, 303.15 K): 0.00288; solubility (mole fraction) (in mesitylene, 308.15 K): 0.00335; solubility (mole fraction) (in mesitylene, 313.15 K): 0.00401; solubility (mole fraction) (in mesitylene, 318.15 K): 0.00476; solubility (mole fraction) (in mesitylene, 323.15 K): 0.00578; solubility (mole fraction) (in n-octanol, 283.15 K): 0.0127; solubility (mole fraction) (in n-octanol, 288.15 K): 0.0144; solubility (mole fraction) (in n-octanol, 293.15 K): 0.0164; solubility (mole fraction) (in n-octanol, 298.15 K): 0.0192; solubility (mole fraction) (in n-octanol, 303.15 K): 0.0232; solubility (mole fraction) (in n-octanol, 308.15 K): 0.0272; solubility (mole fraction) (in n-octanol, 313.15 K): 0.0315; solubility (mole fraction) (in n-octanol, 318.15 K): 0.0362; solubility (mole fraction) (in n-octanol, 323.15 K): 0.0429
